Consider two compounds from patent US4119653A, “Co-ordination compounds of platinum” (Rustenburg Platinum Mines Limited, priority 1976, dated 1978).

One data set has as its system Balb-c white mice. The data set can be described thus: Toxicity (LD50 / deaths), arachis oil intraperitoneal.
In a further data set the test system is ADJ/PC6 tumour. The data set can be described thus: Antitumour test, ADJ/PC6 tumour, arachis oil intraperitoneal. It is filed as in vivo, Balb-c white mice.

SMILES strings stand for the structures. Where only a bound is given, the exact number is not on record here.

Text for ADJ/PC6 tumour: Vehicle: Arachis oil/Intraperitoneal
Subject: Balb-c white mice
(§1) Again as with the results given earlier, the tumour was ADJ/PC6, the vehicle was Arachis oil administered intraperitoneally to Balb-c white mice.
Text for Balb-c white mice: Vehicle: Arachis oil/Intraperitoneal
Subject: Balb-c white mice
as §1

As for `[NH2][Pt]([NH2])([OH])([OH])([Cl])[Cl]` [trans di-hydroxo complexes of Pt(IV)], the LD50 in the data set on Balb-c white mice (table 1, doses in mgm/Kgm) is 135 mg/kg. The “% Inhibition” value is 95.4% in the data set on ADJ/PC6 tumour (dose 12 mgm/Kgm, Balb-c mice) and 97.1% in the data set with ADJ/PC6 tumour (dose 60 mgm/Kgm, Balb-c mice). Besides, the ED90 in the data set with ADJ/PC6 tumour (table 1, doses in mgm/Kgm, Balb-c mice) was under 12 mg/kg.

For the compound `CCCCCCCCN.CCCCCCCCN.[Cl][Pt]([Cl])([Cl])[Cl]` [Cl4 n-octyl], the LD50 with Balb-c white mice (table 9) came out at 270 mg/kg. Further, the inhib with ADJ/PC6 tumour (table 9, line under Cl4 n-octyl, dose not stated) is under 20%.

The term LD50 denotes the dose at which mortality reaches 50%. A low value points to a more toxic substance. In general, % Inhibition refers to the share of the control response that was lost under treatment. Low readings indicate a response near the control, high ones a response far below the control.
